Experiments:
Details in all cases: Compound concentration 1.0 uM
[1] = target: T1, Serine/threonine-protein kinase D2 (Homo sapiens) (UniProt Q9BZL6)
T1 sequence (whole entry): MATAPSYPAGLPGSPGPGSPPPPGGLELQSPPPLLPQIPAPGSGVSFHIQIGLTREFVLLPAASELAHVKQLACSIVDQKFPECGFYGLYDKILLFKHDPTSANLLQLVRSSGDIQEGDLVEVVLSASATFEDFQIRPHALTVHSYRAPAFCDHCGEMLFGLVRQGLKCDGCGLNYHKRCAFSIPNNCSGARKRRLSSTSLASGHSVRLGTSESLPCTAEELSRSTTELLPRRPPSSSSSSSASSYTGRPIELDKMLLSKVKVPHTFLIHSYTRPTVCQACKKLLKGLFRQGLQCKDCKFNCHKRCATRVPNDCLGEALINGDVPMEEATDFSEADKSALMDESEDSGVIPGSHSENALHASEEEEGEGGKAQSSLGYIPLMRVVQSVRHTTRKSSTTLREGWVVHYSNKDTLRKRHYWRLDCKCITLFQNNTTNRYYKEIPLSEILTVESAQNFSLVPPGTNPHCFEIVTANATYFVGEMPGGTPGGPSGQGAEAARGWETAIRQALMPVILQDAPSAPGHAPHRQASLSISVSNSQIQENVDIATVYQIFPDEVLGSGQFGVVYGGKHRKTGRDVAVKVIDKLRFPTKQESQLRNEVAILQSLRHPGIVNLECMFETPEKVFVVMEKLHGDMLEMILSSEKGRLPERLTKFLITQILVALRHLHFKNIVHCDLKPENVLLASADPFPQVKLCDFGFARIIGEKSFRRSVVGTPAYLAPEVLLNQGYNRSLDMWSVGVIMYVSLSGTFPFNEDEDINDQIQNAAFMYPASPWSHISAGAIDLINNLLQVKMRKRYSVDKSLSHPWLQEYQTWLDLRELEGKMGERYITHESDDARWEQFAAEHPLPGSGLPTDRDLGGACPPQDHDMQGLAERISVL

[2] = target: T2, Mitogen-activated protein kinase kinase kinase 2 (Homo sapiens) (UniProt Q9Y2U5)
T2 sequence (whole entry): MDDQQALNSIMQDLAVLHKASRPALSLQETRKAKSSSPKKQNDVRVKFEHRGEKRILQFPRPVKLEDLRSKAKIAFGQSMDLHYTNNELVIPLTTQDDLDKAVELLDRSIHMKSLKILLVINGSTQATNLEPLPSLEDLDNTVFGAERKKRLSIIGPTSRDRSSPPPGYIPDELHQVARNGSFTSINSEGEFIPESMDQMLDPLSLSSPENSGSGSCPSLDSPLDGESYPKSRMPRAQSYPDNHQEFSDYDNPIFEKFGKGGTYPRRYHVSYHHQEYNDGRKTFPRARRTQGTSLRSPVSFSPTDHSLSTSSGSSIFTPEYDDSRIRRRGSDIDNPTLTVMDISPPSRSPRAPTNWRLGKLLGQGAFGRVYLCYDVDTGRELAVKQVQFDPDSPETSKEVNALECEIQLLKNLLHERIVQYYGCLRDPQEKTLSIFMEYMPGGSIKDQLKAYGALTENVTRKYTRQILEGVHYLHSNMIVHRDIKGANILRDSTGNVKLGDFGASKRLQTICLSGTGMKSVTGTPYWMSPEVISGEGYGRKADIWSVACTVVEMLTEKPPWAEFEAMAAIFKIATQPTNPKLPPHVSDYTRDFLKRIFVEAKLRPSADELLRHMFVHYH

[3] = target: T3, Serine/threonine-protein kinase STK11 (Homo sapiens) (UniProt Q15831)
T3 sequence (whole entry): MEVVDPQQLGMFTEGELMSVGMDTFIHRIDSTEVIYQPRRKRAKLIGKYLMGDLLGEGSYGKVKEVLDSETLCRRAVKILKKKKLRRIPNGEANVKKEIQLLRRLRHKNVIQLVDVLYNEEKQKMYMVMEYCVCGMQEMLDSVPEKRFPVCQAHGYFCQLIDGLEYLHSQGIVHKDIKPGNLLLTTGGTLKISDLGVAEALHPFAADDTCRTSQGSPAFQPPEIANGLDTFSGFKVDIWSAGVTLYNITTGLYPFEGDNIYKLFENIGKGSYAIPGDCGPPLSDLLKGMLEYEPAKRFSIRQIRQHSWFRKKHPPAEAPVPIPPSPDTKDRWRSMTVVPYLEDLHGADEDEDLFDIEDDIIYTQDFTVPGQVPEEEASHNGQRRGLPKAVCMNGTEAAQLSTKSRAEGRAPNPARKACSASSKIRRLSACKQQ

[4] = target: LIM domain kinase 1 (Homo sapiens) (UniProt P53667)
[5] = target: T4, Serine/threonine-protein kinase Sgk1 (Homo sapiens) (UniProt O00141)
T4 sequence (whole entry): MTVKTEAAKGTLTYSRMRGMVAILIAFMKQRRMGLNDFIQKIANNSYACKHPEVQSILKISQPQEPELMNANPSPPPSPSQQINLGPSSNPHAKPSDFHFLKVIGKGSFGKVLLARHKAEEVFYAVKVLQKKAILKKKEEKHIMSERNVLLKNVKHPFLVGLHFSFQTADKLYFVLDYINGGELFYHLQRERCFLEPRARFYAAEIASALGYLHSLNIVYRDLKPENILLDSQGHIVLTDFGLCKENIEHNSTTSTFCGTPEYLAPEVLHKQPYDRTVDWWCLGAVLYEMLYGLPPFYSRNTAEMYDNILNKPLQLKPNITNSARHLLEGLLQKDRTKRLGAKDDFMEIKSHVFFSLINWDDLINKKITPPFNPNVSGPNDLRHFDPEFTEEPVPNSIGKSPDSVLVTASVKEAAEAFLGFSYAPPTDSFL

[6] = target: Wee1-like protein kinase 2 (Homo sapiens) (UniProt P0C1S8)
[7] = target: ATR/ATRIP (Homo sapiens) (UniProt Q13535+Q8WXE1)
[8] = target: T5, Testis-specific serine/threonine-protein kinase 1 (Homo sapiens) (UniProt Q9BXA7)
T5 sequence (whole entry): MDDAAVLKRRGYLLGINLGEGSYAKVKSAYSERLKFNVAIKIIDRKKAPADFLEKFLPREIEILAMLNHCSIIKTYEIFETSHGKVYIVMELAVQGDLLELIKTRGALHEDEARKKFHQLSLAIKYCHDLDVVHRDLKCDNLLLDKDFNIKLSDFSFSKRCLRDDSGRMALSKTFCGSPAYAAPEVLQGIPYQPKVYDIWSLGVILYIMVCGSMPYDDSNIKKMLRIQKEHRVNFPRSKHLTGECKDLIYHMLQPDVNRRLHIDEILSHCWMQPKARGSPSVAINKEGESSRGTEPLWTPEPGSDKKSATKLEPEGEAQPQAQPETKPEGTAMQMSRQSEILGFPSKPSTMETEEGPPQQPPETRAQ

Measured: % residual kinase activity

Chain of ATR/ATRIP (Homo sapiens) (Q13535 whole entry, looked up): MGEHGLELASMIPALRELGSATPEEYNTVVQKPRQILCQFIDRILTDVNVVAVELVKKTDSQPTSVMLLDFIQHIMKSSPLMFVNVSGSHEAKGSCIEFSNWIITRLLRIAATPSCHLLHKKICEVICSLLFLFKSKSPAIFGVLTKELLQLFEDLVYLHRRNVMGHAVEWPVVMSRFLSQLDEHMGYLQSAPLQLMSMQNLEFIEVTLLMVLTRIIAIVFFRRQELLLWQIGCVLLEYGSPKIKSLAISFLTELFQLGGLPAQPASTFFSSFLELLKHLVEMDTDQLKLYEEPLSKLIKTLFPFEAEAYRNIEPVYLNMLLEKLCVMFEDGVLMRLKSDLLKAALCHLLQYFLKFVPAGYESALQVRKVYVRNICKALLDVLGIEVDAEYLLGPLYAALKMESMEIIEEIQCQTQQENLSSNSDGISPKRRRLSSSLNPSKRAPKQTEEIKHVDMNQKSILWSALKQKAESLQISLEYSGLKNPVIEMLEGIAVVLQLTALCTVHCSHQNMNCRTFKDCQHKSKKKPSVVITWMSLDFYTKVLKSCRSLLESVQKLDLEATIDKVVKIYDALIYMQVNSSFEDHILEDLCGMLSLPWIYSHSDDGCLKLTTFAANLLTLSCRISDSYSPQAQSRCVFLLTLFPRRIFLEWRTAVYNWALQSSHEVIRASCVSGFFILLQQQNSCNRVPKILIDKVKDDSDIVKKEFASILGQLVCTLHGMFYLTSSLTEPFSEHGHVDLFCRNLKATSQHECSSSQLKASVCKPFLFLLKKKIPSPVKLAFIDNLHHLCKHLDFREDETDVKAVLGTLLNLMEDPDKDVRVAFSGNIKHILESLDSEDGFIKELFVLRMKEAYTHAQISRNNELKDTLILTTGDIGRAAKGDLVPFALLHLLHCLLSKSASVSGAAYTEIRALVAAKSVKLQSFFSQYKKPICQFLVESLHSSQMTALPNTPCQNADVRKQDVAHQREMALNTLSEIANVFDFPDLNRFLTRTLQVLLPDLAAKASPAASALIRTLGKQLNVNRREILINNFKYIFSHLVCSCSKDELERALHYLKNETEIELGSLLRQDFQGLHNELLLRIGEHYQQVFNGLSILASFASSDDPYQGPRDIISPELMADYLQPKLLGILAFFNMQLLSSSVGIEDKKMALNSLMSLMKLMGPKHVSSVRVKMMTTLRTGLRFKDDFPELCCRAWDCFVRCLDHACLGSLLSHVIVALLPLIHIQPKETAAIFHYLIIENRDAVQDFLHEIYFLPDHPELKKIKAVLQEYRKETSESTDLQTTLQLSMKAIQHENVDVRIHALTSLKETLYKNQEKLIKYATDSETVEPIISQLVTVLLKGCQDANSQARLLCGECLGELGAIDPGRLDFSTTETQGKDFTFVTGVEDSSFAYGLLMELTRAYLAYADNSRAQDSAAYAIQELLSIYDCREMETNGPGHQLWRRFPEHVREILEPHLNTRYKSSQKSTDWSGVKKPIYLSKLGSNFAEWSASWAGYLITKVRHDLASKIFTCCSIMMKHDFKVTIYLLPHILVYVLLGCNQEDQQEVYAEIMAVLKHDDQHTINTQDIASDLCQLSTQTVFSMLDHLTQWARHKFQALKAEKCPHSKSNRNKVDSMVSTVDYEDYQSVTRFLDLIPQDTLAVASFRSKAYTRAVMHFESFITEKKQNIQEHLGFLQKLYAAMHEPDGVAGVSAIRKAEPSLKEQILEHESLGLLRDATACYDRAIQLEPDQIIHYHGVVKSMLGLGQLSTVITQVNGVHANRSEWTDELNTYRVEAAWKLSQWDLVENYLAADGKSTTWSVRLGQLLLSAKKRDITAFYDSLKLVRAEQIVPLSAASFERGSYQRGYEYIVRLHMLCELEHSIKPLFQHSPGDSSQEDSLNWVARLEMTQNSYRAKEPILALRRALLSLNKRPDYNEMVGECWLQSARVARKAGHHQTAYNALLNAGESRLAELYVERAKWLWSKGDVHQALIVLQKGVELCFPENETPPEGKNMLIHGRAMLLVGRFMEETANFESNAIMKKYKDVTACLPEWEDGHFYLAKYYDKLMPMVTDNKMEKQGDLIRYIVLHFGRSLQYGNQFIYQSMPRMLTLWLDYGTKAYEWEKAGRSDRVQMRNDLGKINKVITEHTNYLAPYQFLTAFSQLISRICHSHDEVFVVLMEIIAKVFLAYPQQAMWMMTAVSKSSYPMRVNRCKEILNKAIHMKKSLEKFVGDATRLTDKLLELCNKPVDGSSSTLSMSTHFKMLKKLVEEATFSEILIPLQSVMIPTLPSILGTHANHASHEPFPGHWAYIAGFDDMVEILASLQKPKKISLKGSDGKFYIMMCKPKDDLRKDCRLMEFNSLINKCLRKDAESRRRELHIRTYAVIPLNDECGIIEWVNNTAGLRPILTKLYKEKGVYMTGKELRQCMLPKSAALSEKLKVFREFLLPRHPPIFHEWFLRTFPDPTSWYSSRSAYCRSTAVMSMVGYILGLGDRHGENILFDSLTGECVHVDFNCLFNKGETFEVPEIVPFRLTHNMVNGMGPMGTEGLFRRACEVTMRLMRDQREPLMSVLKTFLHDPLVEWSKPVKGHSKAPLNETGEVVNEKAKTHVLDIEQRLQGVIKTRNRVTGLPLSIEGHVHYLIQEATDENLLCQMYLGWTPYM
Chain of ATR/ATRIP (Homo sapiens) (Q8WXE1 whole entry, looked up): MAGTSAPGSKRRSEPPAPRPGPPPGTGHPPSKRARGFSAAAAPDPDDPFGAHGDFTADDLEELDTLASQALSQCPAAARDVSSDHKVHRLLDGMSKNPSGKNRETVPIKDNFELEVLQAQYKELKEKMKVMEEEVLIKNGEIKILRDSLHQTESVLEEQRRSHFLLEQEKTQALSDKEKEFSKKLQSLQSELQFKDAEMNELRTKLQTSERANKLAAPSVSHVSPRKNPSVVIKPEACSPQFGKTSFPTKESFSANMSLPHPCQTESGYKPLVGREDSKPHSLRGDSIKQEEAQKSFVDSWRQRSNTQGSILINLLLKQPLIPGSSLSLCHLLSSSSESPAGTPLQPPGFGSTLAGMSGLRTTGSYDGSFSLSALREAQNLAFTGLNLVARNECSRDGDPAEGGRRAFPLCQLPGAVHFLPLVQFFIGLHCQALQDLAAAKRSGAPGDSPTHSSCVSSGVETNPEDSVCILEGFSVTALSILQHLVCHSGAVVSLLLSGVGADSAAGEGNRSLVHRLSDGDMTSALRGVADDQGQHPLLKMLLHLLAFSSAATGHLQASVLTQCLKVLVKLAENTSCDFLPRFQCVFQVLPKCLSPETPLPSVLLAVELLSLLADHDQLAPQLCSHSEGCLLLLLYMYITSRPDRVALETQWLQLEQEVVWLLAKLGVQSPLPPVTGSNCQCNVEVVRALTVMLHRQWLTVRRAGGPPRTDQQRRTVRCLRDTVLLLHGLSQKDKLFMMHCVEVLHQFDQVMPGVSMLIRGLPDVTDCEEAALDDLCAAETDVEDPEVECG
Chain of LIM domain kinase 1 (Homo sapiens) (P53667 whole entry, looked up, the tested form may be a part): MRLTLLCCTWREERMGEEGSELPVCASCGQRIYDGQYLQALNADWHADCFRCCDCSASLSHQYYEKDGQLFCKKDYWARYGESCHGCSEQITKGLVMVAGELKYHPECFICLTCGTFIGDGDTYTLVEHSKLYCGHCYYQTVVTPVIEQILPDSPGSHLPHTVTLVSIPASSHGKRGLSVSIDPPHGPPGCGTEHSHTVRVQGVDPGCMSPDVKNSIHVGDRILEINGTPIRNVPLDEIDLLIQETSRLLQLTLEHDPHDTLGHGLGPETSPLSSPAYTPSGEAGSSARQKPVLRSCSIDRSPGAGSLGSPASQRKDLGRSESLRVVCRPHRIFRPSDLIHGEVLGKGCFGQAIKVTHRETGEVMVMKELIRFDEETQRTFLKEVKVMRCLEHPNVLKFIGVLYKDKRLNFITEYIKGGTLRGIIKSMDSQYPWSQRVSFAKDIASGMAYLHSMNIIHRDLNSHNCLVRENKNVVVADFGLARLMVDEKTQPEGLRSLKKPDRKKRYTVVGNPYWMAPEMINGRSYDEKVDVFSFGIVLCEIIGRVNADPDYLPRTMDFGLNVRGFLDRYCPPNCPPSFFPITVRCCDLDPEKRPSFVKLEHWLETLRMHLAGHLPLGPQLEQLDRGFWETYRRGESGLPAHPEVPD
Chain of Wee1-like protein kinase 2 (Homo sapiens) (P0C1S8 whole entry, looked up): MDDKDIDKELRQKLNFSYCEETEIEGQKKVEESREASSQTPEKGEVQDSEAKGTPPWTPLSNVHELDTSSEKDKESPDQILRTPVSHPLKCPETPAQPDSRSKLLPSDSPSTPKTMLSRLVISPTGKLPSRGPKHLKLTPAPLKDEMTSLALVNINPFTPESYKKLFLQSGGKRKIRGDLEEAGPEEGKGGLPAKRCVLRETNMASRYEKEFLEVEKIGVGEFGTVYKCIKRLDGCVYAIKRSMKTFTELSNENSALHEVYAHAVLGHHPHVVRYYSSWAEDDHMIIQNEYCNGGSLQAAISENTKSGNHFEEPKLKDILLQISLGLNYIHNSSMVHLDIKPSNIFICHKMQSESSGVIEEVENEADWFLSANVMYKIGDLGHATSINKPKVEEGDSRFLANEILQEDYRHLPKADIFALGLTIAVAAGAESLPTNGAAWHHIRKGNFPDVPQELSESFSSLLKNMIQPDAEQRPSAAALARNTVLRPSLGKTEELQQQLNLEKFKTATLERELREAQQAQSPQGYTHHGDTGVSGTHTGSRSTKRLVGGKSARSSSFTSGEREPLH

CN1CCN(c2cnc3c(C4CCN(C(=O)c5ccc(OC(F)(F)F)cc5N)CC4)ncnc3c2)CC1 [BAY-885]
inactive: [1] 106% | [2] 116% | [3] 104% | [4] 93% | [5] 113% | [6] 124% | [7] 100% | [8] 107%

Reference: ChEMBL document CHEMBL4507268 (2021)
